{
  "source": "patent US10206937B2",
  "about": "“Boronic acid derivatives and therapeutic uses thereof” (Qpex Biopharma, Inc., priority 2014, dated 2019)",
  "system": "strains of Enterobacteriaceae producing various carbapenemases (class A, D and B; 104 strains)",
  "assay": "Antibiotics potentiation by Compound 27 (MIC; meropenem, doripenem, ertapenem, cefepime)",
  "format": "cell-based",
  "conditions": "+ 27 = with Compound 27 at fixed 4 μg/ml",
  "data": [
    {"smiles": "C[C@@H](O)[C@H]1C(=O)N2C(C(=O)O)=C(S[C@@H]3CN[C@H](C(=O)Nc4cccc(C(=O)O)c4)C3)[C@H](C)[C@H]12", "note": "[E]", "values": [
      {"measurement": "MIC", "setting": "strain CF1012 Citrobacter freundii (KPC-2)", "result": "Z (MIC of greater than 10 μg/mL)"},
      {"measurement": "MIC", "setting": "strain CF1021 Citrobacter freundii (CMY-type; VIM-1)", "result": "Y (MIC of 1 μg/mL to 10 μg/mL)"},
      {"measurement": "MIC", "setting": "strain CF1022 Citrobacter freundii (SHV-12(2be), TEM-OSBL(2b); IMP-8)", "result": "Y (MIC of 1 μg/mL to 10 μg/mL)"},
      {"measurement": "MIC", "setting": "strain CF1023 Citrobacter freundii (SHV-12(2be), TEM-OSBL(2b); CTX-M-3; CMY-34; NDM-1)", "result": "Z (MIC of greater than 10 μg/mL)"},
      {"measurement": "MIC", "setting": "strain CL1080 Enterobacter cloacae (IMP-1)", "result": "Y (MIC of 1 μg/mL to 10 μg/mL)"},
      {"measurement": "MIC", "setting": "strain EA1019 Enterobacter aerogenes (SHV-5, VIM-1)", "result": "Z (MIC of greater than 10 μg/mL)"},
      {"measurement": "MIC", "setting": "strain EC1007 Escherichia coli (KPC-3)", "result": "X (MIC of less than 1 μg/mL)"},
      {"measurement": "MIC", "setting": "strain EC1061 Escherichia coli (NDM-1, CMY-6)", "result": "Z (MIC of greater than 10 μg/mL)"},
      {"measurement": "MIC", "setting": "strain EC1062 Escherichia coli (OXA-48, CTX-M-15)", "result": "Y (MIC of 1 μg/mL to 10 μg/mL)"},
      {"measurement": "MIC", "setting": "strain EC1064 Escherichia coli (NDM-1, CMY-6, CTX-M-15)", "result": "Z (MIC of greater than 10 μg/mL)"},
      {"measurement": "MIC", "setting": "strain EC1065 Escherichia coli (IMP-1)", "result": "Y (MIC of 1 μg/mL to 10 μg/mL)"},
      {"measurement": "MIC", "setting": "strain EC1068 Escherichia coli (VIM-1)", "result": "Z (MIC of greater than 10 μg/mL)"},
      {"measurement": "MIC", "setting": "strain EC1069 Escherichia coli (CTX-M-27; NDM-1)", "result": "Z (MIC of greater than 10 μg/mL)"},
      {"measurement": "MIC", "setting": "strain EC1070 Escherichia coli (TEM-OSBL(2b); CMY-42; NDM-5)", "result": "Z (MIC of greater than 10 μg/mL)"},
      {"measurement": "MIC", "setting": "strain EC1072 Escherichia coli (CTX-M-3; NDM-1)", "result": "Z (MIC of greater than 10 μg/mL)"},
      {"measurement": "MIC", "setting": "strain ECL1004 Enterobacter cloacae (NMC-A)", "result": "Z (MIC of greater than 10 μg/mL)"},
      {"measurement": "MIC", "setting": "strain ECL1026 Enterobacter cloacae (KPC-2, TEM-1)", "result": "Z (MIC of greater than 10 μg/mL)"},
      {"measurement": "MIC", "setting": "strain ECL1036 Enterobacter cloacae (KPC-3, TEM-1)", "result": "Y (MIC of 1 μg/mL to 10 μg/mL)"},
      {"measurement": "MIC", "setting": "strain ECL1045 Enterobacter cloacae (VIM-1)", "result": "Z (MIC of greater than 10 μg/mL)"},
      {"measurement": "MIC", "setting": "strain ECL1055 Enterobacter cloacae (KPC-3, TEM)", "result": "Z (MIC of greater than 10 μg/mL)"},
      {"measurement": "MIC", "setting": "strain ECL1057 Enterobacter cloacae (NDM-1, TEM-1, CTX-M-15)", "result": "Z (MIC of greater than 10 μg/mL)"},
      {"measurement": "MIC", "setting": "strain ECL1058 Enterobacter cloacae (KPC-3, SHV-11, TEM-1)", "result": "Z (MIC of greater than 10 μg/mL)"},
      {"measurement": "MIC", "setting": "strain ECL1059 Enterobacter cloacae (KPC-3, SHV-12, TEM-1)", "result": "Y (MIC of 1 μg/mL to 10 μg/mL)"},
      {"measurement": "MIC", "setting": "strain ECL1061 Enterobacter cloacae (KPC-3, Hyper AmpC expression)", "result": "Z (MIC of greater than 10 μg/mL)"},
      {"measurement": "MIC", "setting": "strain ECL1082 Enterobacter cloacae (VIM-1)", "result": "Y (MIC of 1 μg/mL to 10 μg/mL)"},
      {"measurement": "MIC", "setting": "strain ECL1084 Enterobacter cloacae (CTX-M-15; ACT-16; NDM-1)", "result": "Z (MIC of greater than 10 μg/mL)"},
      {"measurement": "MIC", "setting": "strain ECL1085 Enterobacter cloacae (SHV-31(2be), TEM-1(2b); CTX-M-15; NDM-1)", "result": "Z (MIC of greater than 10 μg/mL)"},
      {"measurement": "MIC", "setting": "strain ECL1086 Enterobacter cloacae (VIM-31, OXA-48(c))", "result": "Z (MIC of greater than 10 μg/mL)"},
      {"measurement": "MIC", "setting": "strain ECL1087 Enterobacter cloacae (VIM-1)", "result": "Z (MIC of greater than 10 μg/mL)"},
      {"measurement": "MIC", "setting": "strain ECL1088 Enterobacter cloacae (TEM-1(2b); CTX-M-14; ACT-type; VIM-1)", "result": "Z (MIC of greater than 10 μg/mL)"},
      {"measurement": "MIC", "setting": "strain ECL1089 Enterobacter cloacae (ACT-type; IMP-1)", "result": "Z (MIC of greater than 10 μg/mL)"},
      {"measurement": "MIC", "setting": "strain ECL1090 Enterobacter cloacae (TEM-1(2b); CTX-M-22; ACT-type; IMP-8)", "result": "Y (MIC of 1 μg/mL to 10 μg/mL)"},
      {"measurement": "MIC", "setting": "strain ECL1091 Enterobacter cloacae (VIM-1)", "result": "Y (MIC of 1 μg/mL to 10 μg/mL)"},
      {"measurement": "MIC", "setting": "strain ECL1092 Enterobacter cloacae (TEM-OSBL(2b); ACT-32; VIM-1)", "result": "Y (MIC of 1 μg/mL to 10 μg/mL)"},
      {"measurement": "MIC", "setting": "strain ECL1093 Enterobacter cloacae (TEM-OSBL(2b); ACT-32; VIM-1)", "result": "Y (MIC of 1 μg/mL to 10 μg/mL)"},
      {"measurement": "MIC", "setting": "strain ECL1094 Enterobacter cloacae (VIM-1)", "result": "Z (MIC of greater than 10 μg/mL)"},
      {"measurement": "MIC", "setting": "strain ECL1096 Enterobacter cloacae (CMY-4, VIM-4, OXA-48(c))", "result": "Z (MIC of greater than 10 μg/mL)"},
      {"measurement": "MIC", "setting": "strain ECL1097 Enterobacter cloacae (SHV-31(2be), TEM-OSBL(2b); CTX-M-15; ACT-31; NDM-1)", "result": "Z (MIC of greater than 10 μg/mL)"},
      {"measurement": "MIC", "setting": "strain ECL1098 Enterobacter cloacae (TEM-OSBL(2b); DHA-1; ACT-16; NDM-1)", "result": "Z (MIC of greater than 10 μg/mL)"},
      {"measurement": "MIC", "setting": "strain KP1001 Klebsiella pneumoniae (KPC TEM SHV)", "result": "Z (MIC of greater than 10 μg/mL)"},
      {"measurement": "MIC", "setting": "strain KP1002 Klebsiella pneumoniae (KPC TEM SHV)", "result": "Y (MIC of 1 μg/mL to 10 μg/mL)"},
      {"measurement": "MIC", "setting": "strain KP1003 Klebsiella pneumoniae (KPC TEM SHV)", "result": "Z (MIC of greater than 10 μg/mL)"},
      {"measurement": "MIC", "setting": "strain KP1004 Klebsiella pneumoniae (KPC-2, TEM-1, SHV-11)", "result": "Z (MIC of greater than 10 μg/mL)"},
      {"measurement": "MIC", "setting": "strain KP1008 Klebsiella pneumoniae (KPC-2)", "result": "Y (MIC of 1 μg/mL to 10 μg/mL)"},
      {"measurement": "MIC", "setting": "strain KP1014 Klebsiella pneumoniae (VIM-1, TEM, SHV)", "result": "Y (MIC of 1 μg/mL to 10 μg/mL)"},
      {"measurement": "MIC", "setting": "strain KP1054 Klebsiella pneumoniae (VIM-1, SHV-11)", "result": "Y (MIC of 1 μg/mL to 10 μg/mL)"},
      {"measurement": "MIC", "setting": "strain KP1059 Klebsiella pneumoniae (VIM-1, SHV-11)", "result": "Z (MIC of greater than 10 μg/mL)"},
      {"measurement": "MIC", "setting": "strain KP1061 Klebsiella pneumoniae (KPC-3, SHV-11, TEM-1)", "result": "Z (MIC of greater than 10 μg/mL)"},
      {"measurement": "MIC", "setting": "strain KP1064 Klebsiella pneumoniae (KPC-2, SHV-11, TEM-1)", "result": "Z (MIC of greater than 10 μg/mL)"},
      {"measurement": "MIC", "setting": "strain KP1065 Klebsiella pneumoniae (VIM-1, SHV-11)", "result": "Y (MIC of 1 μg/mL to 10 μg/mL)"},
      {"measurement": "MIC", "setting": "strain KP1070 Klebsiella pneumoniae (KPC-2, SHV-11, TEM-1)", "result": "Z (MIC of greater than 10 μg/mL)"},
      {"measurement": "MIC", "setting": "strain KP1074 Klebsiella pneumoniae (KPC-3, SHV-11, TEM)", "result": "Z (MIC of greater than 10 μg/mL)"}
    ]}
  ]
}
